In brackets after ≈: the same amount, converted by molar mass.
tested on: P388; assay: Cytotoxicity against mouse P388 cells; format: functional, cell-based

SMILES	IC50 [µg/mL]
CC/C=C/C(CC)CCCC1(CC)C[C@H](CC)[C@H](CC(=O)OC)OO1 (relative stereo)	5 (≈ 14.1 µM)
CC/C=C/C(CC)CCCC1(CC)C[C@H](CC)[C@H](CC(=O)O)OO1 (relative stereo)	0.5 (≈ 1.47 µM)
CC/C=C/C(CC)C/C(C)=C/C(O)(CC)CC(O)(/C=C/C(=O)O)CC (centres undefined)	10 (≈ 28.4 µM)
CC/C=C/C(CC)C/C(=C/C(O)(CC)CC(O)(/C=C/C(=O)O)CC)CC (centres undefined)	10 (≈ 27.3 µM)

Source: ChEMBL document CHEMBL1147388, “Three new cytotoxic metabolites from the marine sponge Plakortis halichondrioides” (J Nat Prod, 1993)
